According to paper PMC4365270 (Cancer Chemotherapy and Pharmacology, 2015):
Entries after “also recorded” stand apart in the source; their conditions may differ. Where two headings read alike, the source gives them in different places.

Columns and labels:
[1] = system: caspase-3 generated cytokeratin-18 fragments (M30); experiment: Plasma M30 ELISA; assay type: in vivo, human; conditions: day 5, p < 0.0033
Method: cIAP-1 levels were measured in tumor tissue and surrogate tissue as available. Peripheral blood mononuclear cells (PBMCs) were analyzed for DEBIO1143-induced cIAP-1 degradation. Plasma native cytokeratin-18 ([…]) or caspase-3 generated cytokeratin-18 fragments (M30), interleukin 8 (IL8), chemokine ligand 2 (CCL2, MCP1), and tumor necrosis factor α (TNFα) were measured by ELISA as markers of epithelial cell death and inflammation on days 1 (predose, 1, 3, 6, and 12 h postdose), 2, and 5. […] For the detection of cIAP-1 in paraffin-embedded human tissue, a validated immunohistochemical (IHC) assay was used. DEBIO1143-induced cIAP-1 degradation was measured in PBMCs using Western blot. Plasma biomarkers were measured through commercial ELISAs. All laboratory analyses were performed by MPI Research, Inc. (PK) and Mosaic Laboratory, LLC (PD).

[2] = target: T1, cIAP-1 (Homo sapiens, UniProt Q13490); experiment: cIAP1 degradation in PBMCs, Western blot; assay type: in vivo
T1 construct: endogenous in cells; host or cells: peripheral blood mononuclear cells (PBMCs) of patients
Method: Pharmacokinetic samples were taken from all patients on day 1 (predose, 0.5, 1, 2, 3, 4, 6, 8, 12, 18 h postdose) and on day 5 (predose, 0.5, 1, 2, 3, 4, 6, 8 h postdose) of the first cycle. In addition, for exploratory PD analysis of IAP inhibition and activation of apoptosis, optional skin and tumor biopsies were taken from consenting patients on days 1 (predose) and 5 and blood samples on day 1 (predose, 1, 3, 6, 8, 12 h postdose), day 2 (predose), and day 5 (3 h postdose).
cIAP-1 levels were measured in tumor tissue and surrogate tissue as available. Peripheral blood mononuclear cells (PBMCs) were analyzed for DEBIO1143-induced cIAP-1 degradation. Plasma native cytokeratin-18 (M65) or caspase-3 generated cytokeratin-18 fragments (M30), interleukin 8 (IL8), chemokine ligand 2 (CCL2, MCP1), and tumor necrosis factor α (TNFα) were measured by ELISA as markers of epithelial cell death and inflammation on days 1 (predose, 1, 3, 6, and 12 h postdose), 2, and 5.
For the detection of cIAP-1 in paraffin-embedded human tissue, a validated immunohistochemical (IHC) assay was used. DEBIO1143-induced cIAP-1 degradation was measured in PBMCs using Western blot. Plasma biomarkers were measured through commercial ELISAs. All laboratory analyses were performed by MPI Research, Inc. (PK) and Mosaic Laboratory, LLC (PD).

[3] = design: method as in PMID 23813446; conditions: rats; cited from earlier work
[4] = design: method as in PMID 23813446; conditions: mice; cited from earlier work

T1 sequence (Q13490 whole entry): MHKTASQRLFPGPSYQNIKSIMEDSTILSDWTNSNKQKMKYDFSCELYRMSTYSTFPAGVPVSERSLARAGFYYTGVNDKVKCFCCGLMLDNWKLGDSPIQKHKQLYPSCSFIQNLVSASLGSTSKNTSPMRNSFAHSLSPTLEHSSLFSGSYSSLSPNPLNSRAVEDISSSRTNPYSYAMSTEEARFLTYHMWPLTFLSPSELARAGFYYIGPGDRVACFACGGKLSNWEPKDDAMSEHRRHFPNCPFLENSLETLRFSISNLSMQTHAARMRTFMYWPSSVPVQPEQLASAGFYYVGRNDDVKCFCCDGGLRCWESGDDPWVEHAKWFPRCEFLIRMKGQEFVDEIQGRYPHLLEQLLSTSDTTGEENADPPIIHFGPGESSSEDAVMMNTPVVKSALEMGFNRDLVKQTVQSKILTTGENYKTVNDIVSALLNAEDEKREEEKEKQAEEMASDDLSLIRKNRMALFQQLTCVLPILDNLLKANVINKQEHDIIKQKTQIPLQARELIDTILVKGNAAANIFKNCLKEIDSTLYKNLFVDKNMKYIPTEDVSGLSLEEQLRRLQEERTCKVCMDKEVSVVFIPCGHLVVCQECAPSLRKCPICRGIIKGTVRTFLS

SMILES: CN[C@@H](C)C(=O)N[C@H]1CN(C(=O)CC(C)C)CC[C@H]2CC[C@@H](C(=O)NC(c3ccccc3)c3ccccc3)N2C1=O [DEBIO1143]
- Plasma level of M30 [1]: increased significantly
- cIAP1/Actin in PBMC, mean (SD) ([2]; 120 mg, 1h, N=1): 2% (0) % from baseline
- cIAP1/Actin in PBMC, median (range) ([2]; 120 mg, 1h, N=1): 2 (2-2) % from baseline
- cIAP1/Actin in PBMC, mean (SD) ([2]; 120 mg, 3h, N=1): 2% (0) % from baseline
- cIAP1/Actin in PBMC, median (range) ([2]; 120 mg, 3h, N=1): 2 (2-2) % from baseline
- cIAP1/Actin in PBMC, mean (SD) ([2]; 120 mg, 6h, N=1): 4% (0) % from baseline
- cIAP1/Actin in PBMC, median (range) ([2]; 120 mg, 6h, N=1): 4 (4-4) % from baseline
- cIAP1/Actin in PBMC, mean (SD) ([2]; 120 mg, 12h, N=1): 3% (0) % from baseline
- cIAP1/Actin in PBMC, median (range) ([2]; 120 mg, 12h, N=1): 3 (3-3) % from baseline
- cIAP1/Actin in PBMC, mean (SD) ([2]; 120 mg, 24h, N=1): 4% (0) % from baseline
- cIAP1/Actin in PBMC, median (range) ([2]; 120 mg, 24h, N=1): 4 (4-4) % from baseline
- cIAP1/Actin in PBMC, mean (SD) ([2]; 120 mg, 99h, N=1): 5% (0) % from baseline
- cIAP1/Actin in PBMC, median (range) ([2]; 120 mg, 99h, N=1): 5 (5-5) % from baseline
- cIAP1/Actin in PBMC, mean (SD) ([2]; 180 mg, 1h, N=6): 34% (31) % from baseline
- cIAP1/Actin in PBMC, median (range) ([2]; 180 mg, 1h, N=6): 33 (0-78) % from baseline
- cIAP1/Actin in PBMC, mean (SD) ([2]; 180 mg, 3h, N=6): 20% (25) % from baseline
- cIAP1/Actin in PBMC, median (range) ([2]; 180 mg, 3h, N=6): 12 (3-68) % from baseline
- cIAP1/Actin in PBMC, mean (SD) ([2]; 180 mg, 6h, N=7): 6% (8) % from baseline
- cIAP1/Actin in PBMC, median (range) ([2]; 180 mg, 6h, N=7): 5 (0-24) % from baseline
- cIAP1/Actin in PBMC, mean (SD) ([2]; 180 mg, 12h, N=3): 8% (7) % from baseline
- cIAP1/Actin in PBMC, median (range) ([2]; 180 mg, 12h, N=3): 5 (4-16) % from baseline
- cIAP1/Actin in PBMC, mean (SD) ([2]; 180 mg, 24h, N=6): 9% (10) % from baseline
- cIAP1/Actin in PBMC, median (range) ([2]; 180 mg, 24h, N=6): 5 (3-29) % from baseline
- cIAP1/Actin in PBMC, mean (SD) ([2]; 180 mg, 99h, N=6): 2% (2) % from baseline
- cIAP1/Actin in PBMC, median (range) ([2]; 180 mg, 99h, N=6): 0 (0-5) % from baseline
- cIAP1/Actin in PBMC, mean (SD) ([2]; 260 mg, 1h, N=3): 39% (33) % from baseline
- cIAP1/Actin in PBMC, median (range) ([2]; 260 mg, 1h, N=3): 44 (4-70) % from baseline
- cIAP1/Actin in PBMC, mean (SD) ([2]; 260 mg, 3h, N=3): 45% (50) % from baseline
- cIAP1/Actin in PBMC, median (range) ([2]; 260 mg, 3h, N=3): 24 (9-103) % from baseline
- cIAP1/Actin in PBMC, mean (SD) ([2]; 260 mg, 6h, N=3): 9% (4) % from baseline
- cIAP1/Actin in PBMC, median (range) ([2]; 260 mg, 6h, N=3): 8 (5-13) % from baseline
- cIAP1/Actin in PBMC, mean (SD) ([2]; 260 mg, 12h, N=2): 14% (5) % from baseline
- cIAP1/Actin in PBMC, median (range) ([2]; 260 mg, 12h, N=2): 14 (10-17) % from baseline
- cIAP1/Actin in PBMC, mean (SD) ([2]; 260 mg, 24h, N=3): 9% (7) % from baseline
- cIAP1/Actin in PBMC, median (range) ([2]; 260 mg, 24h, N=3): 6 (5-16) % from baseline
- cIAP1/Actin in PBMC, mean (SD) ([2]; 260 mg, 99h, N=3): 6% (3) % from baseline
- cIAP1/Actin in PBMC, median (range) ([2]; 260 mg, 99h, N=3): 6 (3-8) % from baseline
- cIAP1/Actin in PBMC, mean (SD) ([2]; 400 mg, 1h, N=1): 14% (0) % from baseline
- cIAP1/Actin in PBMC, median (range) ([2]; 400 mg, 1h, N=1): 14 (14-14) % from baseline
- cIAP1/Actin in PBMC, mean (SD) ([2]; 400 mg, 3h, N=2): 4% (2) % from baseline
- cIAP1/Actin in PBMC, median (range) ([2]; 400 mg, 3h, N=2): 4 (3-6) % from baseline
- cIAP1/Actin in PBMC, mean (SD) ([2]; 400 mg, 6h, N=2): 6% (4) % from baseline
- cIAP1/Actin in PBMC, median (range) ([2]; 400 mg, 6h, N=2): 6 (2-9) % from baseline
- cIAP1/Actin in PBMC, mean (SD) ([2]; 400 mg, 24h, N=2): 19% (26) % from baseline
- cIAP1/Actin in PBMC, median (range) ([2]; 400 mg, 24h, N=2): 19 (0-37) % from baseline
- cIAP1/Actin in PBMC, mean (SD) ([2]; 400 mg, 99h, N=2): 28% (31) % from baseline
- cIAP1/Actin in PBMC, median (range) ([2]; 400 mg, 99h, N=2): 28 (6-51) % from baseline
- cIAP1/Actin in PBMC, mean (SD) ([2]; 600 mg, 1h, N=3): 27% (9) % from baseline
- cIAP1/Actin in PBMC, median (range) ([2]; 600 mg, 1h, N=3): 25 (20-38) % from baseline
- cIAP1/Actin in PBMC, mean (SD) ([2]; 600 mg, 3h, N=3): 24% (11) % from baseline
- cIAP1/Actin in PBMC, median (range) ([2]; 600 mg, 3h, N=3): 18 (17-36) % from baseline
- cIAP1/Actin in PBMC, mean (SD) ([2]; 600 mg, 6h, N=3): 20% (11) % from baseline
- cIAP1/Actin in PBMC, median (range) ([2]; 600 mg, 6h, N=3): 17 (11-33) % from baseline
- cIAP1/Actin in PBMC, mean (SD) ([2]; 600 mg, 12h, N=1): 36% (0) % from baseline
- cIAP1/Actin in PBMC, median (range) ([2]; 600 mg, 12h, N=1): 36 (36-36) % from baseline
- cIAP1/Actin in PBMC, mean (SD) ([2]; 600 mg, 24h, N=3): 29% (36) % from baseline
- cIAP1/Actin in PBMC, median (range) ([2]; 600 mg, 24h, N=3): 14 (3-70) % from baseline
- cIAP1/Actin in PBMC, mean (SD) ([2]; 600 mg, 99h, N=2): 14% (19) % from baseline
- cIAP1/Actin in PBMC, median (range) ([2]; 600 mg, 99h, N=2): 14 (0-28) % from baseline
- cIAP1/Actin in PBMC, mean (SD) ([2]; 900 mg, 1h, N=5): 11% (8) % from baseline
- cIAP1/Actin in PBMC, median (range) ([2]; 900 mg, 1h, N=5): 9 (2-24) % from baseline
- cIAP1/Actin in PBMC, mean (SD) ([2]; 900 mg, 3h, N=4): 15% (23) % from baseline
- cIAP1/Actin in PBMC, median (range) ([2]; 900 mg, 3h, N=4): 3 (3-49) % from baseline
- cIAP1/Actin in PBMC, mean (SD) ([2]; 900 mg, 6h, N=4): 14% (13) % from baseline
- cIAP1/Actin in PBMC, median (range) ([2]; 900 mg, 6h, N=4): 11 (1-32) % from baseline
- cIAP1/Actin in PBMC, mean (SD) ([2]; 900 mg, 12h, N=2): 9% (2) % from baseline
- cIAP1/Actin in PBMC, median (range) ([2]; 900 mg, 12h, N=2): 9 (7-10) % from baseline
- cIAP1/Actin in PBMC, mean (SD) ([2]; 900 mg, 24h, N=4): 11% (18) % from baseline
- cIAP1/Actin in PBMC, median (range) ([2]; 900 mg, 24h, N=4): 3 (0-38) % from baseline
- cIAP1/Actin in PBMC, mean (SD) ([2]; 900 mg, 99h, N=4): 7% (6) % from baseline
- cIAP1/Actin in PBMC, median (range) ([2]; 900 mg, 99h, N=4): 8 (0-14) % from baseline
- cIAP1 in PBMCs (Western blot) ([2]; patients with detectable cIAP1, doses above 80 mg): decreased; also recorded: rapid and persistent cIAP1 degradation
- Oral bioavailability [3]: good
- Oral bioavailability [4]: good
